Results as given in US20260152533A1, “COMBINATION INHIBITORS FOR TREATING FIBROSIS” (Memorial Sloan-Kettering Cancer Center, priority 2021, published 2026).

What was measured:
Type in all cases: cell-based, mouse
NIH-3T3 cells [1] = assay: Growth experiments, NIH-3T3 cells; details: 10% Gln, TGFβ, 0.2, 1 or 5 mM metabolite, 3 days
Description: (§1) NIH-3T3 cells were obtained from ATCC (CRL-1658); 293 T cells were obtained from ATCC (CRL-3216). PSCs were isolated from C57BL/6 mice by differential centrifugation as previously described^49 and their mesenchymal origin was validated by analyzing the expression of various mesenchymal and epithelial markers. MFBs were isolated from FVB/N mice by differential centrifugation as previously described^50. DB7 mouse breast cancer cells were obtained from Alexander Borowsky (University of California Davis Comprehensive Cancer Center, Sacramento, CA, USA) through an MTA to Ohio State University (OSU). KPC (Kras^LSL-G12D; Trp53^LSL-R172H; Pdx1-Cre) mouse PDAC cells were a gift from Scott Lowe (Memorial Sloan Kettering Cancer Center. (MSKCC)). All cells were cultured at 37° C. in 5% carbon dioxide (CO2) and 20% oxygen (O2) and were maintained in Dulbecco's Modified Eagles medium (DMEM) (25 mM D-glucose, 2 mM L-glutamine) supplemented with 10% fetal bovine serum (FBS) (Gemini), 100 units/ml penicillin and 100 μg/ml streptomycin. Primary PSC and MFB cells were kept in culture for no more than ten passages. Experiments with iCAFs and myCAFs were performed as previously described^29. In brief, qPSCs were generated by culturing PSCs in a dome of GFR Matrigel (Corning) in DMEM; iCAFs were generated by culturing PSCs in a dome of GFR Matrigel in DMEM conditioned by KPC cells for 48 h; myCAFs were generated by monolayer culture of PSCs. Differentiation was validated by analyzing the expression of iCAF/myCAF markers^29. For experiments with different glutamine concentrations, cells were seeded in regular DMEM and the medium was changed 5-6 hours later or the following day to glucose and glutamine-free DMEM supplemented with 10% dialyzed FBS (Gemini) and 20 mM D-glucose, 2 mM L-glutamine (100%), 0.4 mM L-glutamine (20%) or 0.2 mM L-glutamine (10%). All media were prepared by the Media Preparation Facility at MSKCC. Cells were verified as mycoplasma-free by the MycoAlert Mycoplasma Detection Kit (Lonza).
A total of 0.2×10^5 cells/well were plated in 24-well culture plates and media was changed and treatments started 5-6 hours later. Cell numbers at the start of treatment (day 0 “d 0”) and 1, 2 and 3 days later were counted using the Multisizer 4e (Beckman) and normalized to the cell number at d 0. In co-culture assays, a fraction of the cell population was analyzed by flow cytometry for GFP expression, and the rest counted with the Multisizer 4e. The number of KPC-GFP cells was determined by multiplying the fraction of GFP+ cells with the total number of cells.

NIH-3T3 cells [2] = assay: Western blot of NIH-3T3 cells (collagen I, GCN2, ATF4, PC); details: for rescue of TGFβ-induced collagen I depletion: metabolite, 48 hours
Description: as §1, with “PSCs” for “NIH-3T3 cells were obtained from ATCC (CRL-1658); 293 T cells were obtained from ATCC (CRL-3216). PSCs”
Lysates were generated by incubating cells or ground tumors in RIPA buffer (Millipore); […] of cleared lysate were analyzed by SDS-polyacrylamide gel electrophoresis (SDS-PAGE) as previously described^11. […] The following secondary antibodies were used: anti-rabbit horseradish peroxidase (HRP) (1:5,000; GE, NA934V), anti-mouse HRP (1:5,000; GE, NA931). Quantification of band intensities of collagen I relative to […] or vinculin in tumor allograft experiments was performed with Image Lab software v6.0 (Bio-Rad).

NIH-3T3 cells [3] = assay: Translation assay (OPP), NIH-3T3 cells; details: cells expressing human PC cDNA, 10% Gln, TGFβ, MSO 48 hours (FIG. 3K)
Experimental: Cells were treated as indicated and incubated with 20 μM O-propargyl-puromycin (OPP, Thermo Scientific) for the last 1 hour of the experiment. Cells were harvested by trypsinization and fixed with methanol at −20° C., followed by permeabilization with 0.5% Triton X-100 in phosphate-buffered saline (PBS).

NIH-3T3 cells [4] = assay: tRNA charging assay, NIH-3T3 cells; details: 10% Gln, TGFβ 2 ng/mL, dm-αKG 5 mM with or without MSO 2 mM, 48 hours (FIG. 2A)
Experimental: Charging status of the indicated tRNA isodecoders was measured as previously described^20. In brief, Trizol-chloroform extracts were precipitated with 2.7× volumes of cold ethanol in the presence of 30 μg GlycoBlue (ThermoFisher) overnight. Samples were resuspended in 0.3 M acetate buffer (pH 4.5) with 10 mM ethylenediamine tetraacetic acid (EDTA) and precipitated overnight. Samples were resuspended in 10 mM acetate buffer with 1 mM EDTA. 2 μg of each RNA sample was treated with 10 mM of either sodium periodate (Sigma) (‘oxidized sample’) or sodium chloride (‘non-oxidized sample’) and incubated for 20 minutes at room temperature in the dark. Reactions were quenched with glucose for 15 minutes. Yeast Phe-tRNA (Sigma) was spiked into each sample, followed by ethanol precipitation. Samples were resuspended in 50 mM Tris buffer (pH 9) and incubated for 50 minutes at 37° C., quenched with acetate buffer and precipitated. […] Reverse transcription was performed with SuperScript IV reverse transcriptase (Thermo Scientific) according to the manufacturer's instructions, with a primer complementary to the DNA adaptor. cDNA samples were subjected to qPCR with tRNA isodecoder-specific primer pairs listed in Supplementary Table 1. Ct values obtained with primers specific for yeast Phe-tRNA were subtracted from Ct values obtained with isodecoder-specific primers. The charged fraction was calculated based on the relative difference between the delta-Ct value of a non-oxidized (representing total) and oxidized (representing charged) sample for each primer pair.

[5] = test system: pancreatic stellate cells (PSCs); assay: Western blot of PSCs; details: TGFβ-treated PSCs, low glutamine, MSO (FIGS. 9A-9B)
Description: as §1, with “PSCs” for “NIH-3T3 cells were obtained from ATCC (CRL-1658); 293 T cells were obtained from ATCC (CRL-3216). PSCs”, “For experiments with different glutamine concentrations, cells were seeded in regular DMEM and the medium was changed 5-6 hours later or the following day to glucose and glutamine-free DMEM supplemented with 10% dialyzed FBS (Gemini) and 20 mM D-glucose, 2 mM L-glutamine (100%), 0.4 mM L-glutamine (20%) or 0.2 mM L-glutamine (10%). All media were prepared by the Media Preparation Facility at MSKCC. Cells were verified as mycoplasma-free by the MycoAlert Mycoplasma Detection Kit (Lonza).” left out
Lysates were generated by incubating cells or ground tumors in RIPA buffer (Millipore); […] of cleared lysate were analyzed by SDS-polyacrylamide gel electrophoresis (SDS-PAGE) as previously described^11. […] Quantification of band intensities of collagen I relative to […] or vinculin in tumor allograft experiments was performed with Image Lab software v6.0 (Bio-Rad).

NIH-3T3 cells [6] = assay: Collagen abundance in ECM derived from confluent NIH-3T3 cells; details: low glutamine and low glucose medium (FIGS. 12E and 12F)
Experimental: Culture plates were coated with 0.1% gelatin (Sigma) and treated with 1% glutaraldehyde (Sigma) and 1 M ethanolamine (Sigma). Confluent NIH-3T3 cells, MFBs or PSCs were grown for 6 days on coated plates in the presence of […] sodium ascorbate (Sigma) and treated as indicated, and the medium was replaced every other day. Plates were decellularized with 20 mM ammonium hydroxide/0.5% Triton-X 100 for 5 min on a rotating platform. Three times the volume of PBS was added, and ECM was equilibrated overnight at 4° C., followed by four additional PBS washes. For western blot, preheated sample buffer supplemented with 1 mM dithiothreitol (DTT) was added, ECM was scraped off and boiled, and proteins were separated by SDS-PAGE followed by immunoblotting. To measure collagen abundance, fibroblast-derived ECM was stained with the Picro Sirius Red Stain Kit (Abcam) according to the manufacturer's instructions. The stain was extracted with 0.1 M sodium hydroxide (NaOH) and optical density was measured at 550 nm using a microplate reader. Differences in cell number were controlled for by growing cells on separate plates under the same experimental conditions.

[7] = concentrations relevant in vivo (10 mM lactate, 0.1 mM pyruvate), low glutamine and low glucose (FIG. 6E)

With `NC(=O)C[C@H](N)C(=O)O` [Asparagine, asparagine] the “rescue of TGFβ-induced growth defect” value (NIH-3T3 cells [1]) was “did not rescue” and the “rescue of TGFβ-induced collagen I depletion” value (NIH-3T3 cells [2]; 10% Gln) was “did not rescue”.
With `CS(=N)(=O)CC[C@H](N)C(=O)O` (stereo partly drawn) [MSO, methionine sulfoximine] the “restoration of collagen I levels by dm-αKG” value (NIH-3T3 cells [2]; PC-deleted cells, 10% Gln, dm-αKG plus MSO, 48 hours (FIG. 4I)) was “unable to restore”, the “restoration of collagen levels by dm-Glu and dm-αKG” value (NIH-3T3 cells [2]; TGFβ-treated NIH-3T3 cells, low glutamine, MSO (FIGS. 2C-2E)) was “prevented” and the “collagen I synthesis” value (NIH-3T3 cells [2]; low Gln (10%), no TGFβ, MSO 48 hours (FIG. 2J)) was “unable to maintain”. The “increase of protein translation by PC overexpression” value (NIH-3T3 cells [3]) was “blocked”, the “charging of glutamine-tRNA” value (NIH-3T3 cells [4]) was “blocked” and the “restoration of collagen levels by dm-Glu and dm-αKG” value [5] was “prevented”.
In the case of `CC(=O)C(=O)[O-].[Na+]` [Pyruvate, sodium pyruvate], the “collagen 1 levels” value (NIH-3T3 cells [2]; [7]) is reported as “only lactate supplementation increased” and the “potency to increase collagen 1 levels, relative” value (NIH-3T3 cells [2]; low glutamine and low glucose (FIG. 6E)) is reported as “more potent than lactate”.
With `CC(O)C(=O)[O-].[Na+]` (stereo not drawn) [lactate, sodium lactate] the “ability of extracellular lactate to rescue collagen I” value (NIH-3T3 cells [2]; Ctrl or PC sgRNA cells, low glutamine and low glucose (FIG. 6H)) was “PC-dependent”, the “collagen 1 levels” value (NIH-3T3 cells [2]; [7]) was “increased” and the “collagen 1 levels” value (NIH-3T3 cells [2]; low glutamine (10%) and low glucose (1 mM), 48 hours (FIG. 6E)) was “increased”. The “collagen levels in the ECM produced by confluent fibroblasts” value (NIH-3T3 cells [6]) was “increased”.
In the case of `COC(=O)[C@@H]1CCCN1` [m-Pro, L-proline-methylester, reference compound], the “rescue of TGFβ-induced growth defect” value (NIH-3T3 cells [1]) is reported as “not” and the “rescue of TGFβ-induced collagen I depletion” value (NIH-3T3 cells [2]; 10% Gln) is reported as “not”.
`O=C(O)[C@@H]1CCCN1` [proline] was tested, and the “rescue of TGFβ-induced growth defect” value (NIH-3T3 cells [1]) was “did not rescue” and the “rescue of TGFβ-induced collagen I depletion” value (NIH-3T3 cells [2]; 10% Gln) was “did not rescue”.
